Some test systems named below: 786-0 renal; CCRF-CEM leukemia; MALME-3M melanoma; MOLT-4 leukemia; OVCAR-4 ovarian; OVCAR-5 ovarian; OVCAR-8 ovarian; RXF 393 renal; SK-MEL-28 melanoma; SNB-75 CNS.
Assay in all cases: NCI tumour cell line growth inhibition, 48 h

“And” between values parts separate entries of the source, which are not always exact repeats. Equal values may be shown once.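 Five concentrations, 48 hours, 96-well plates. GI50 marks 50% less growth. TGI: total growth inhibition.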

Consider `C/C=C(/C)C(=O)OC1C=C(CO)C(=O)C(OC(=O)/C(C)=C\C)C1C(C)C` (stereo not given), for which the GI50 with 786-0 renal was 1.08 µM; in the test with CCRF-CEM leukemia, 0.321 µM; in the test on MALME-3M melanoma it was 0.61 µM; in the test with MOLT-4 leukemia it was 0.335 µM; with OVCAR-4 ovarian it was 1.12 µM; in the test on OVCAR-5 ovarian, 0.976 µM. Also, the GI50 is 0.633 µM in the test with OVCAR-8 ovarian, 1.13 µM in the test on RXF 393 renal, 1.39 µM with SK-MEL-28 melanoma and 1.4 µM with SNB-75 CNS. For the same molecule, the TGI amounted to 2.63 µM with 786-0 renal; 4.19 µM in the test with CCRF-CEM leukemia; 1.63 µM in the test on MALME-3M melanoma; 3.89 µM in the test on MOLT-4 leukemia; 2.49 µM with OVCAR-4 ovarian; 2.5 µM in the test with OVCAR-5 ovarian. Further, the TGI with OVCAR-8 ovarian was found to be 2.21 µM; in the test with RXF 393 renal it was 2.54 µM; with SK-MEL-28 melanoma, 2.8 µM; in the test with SNB-75 CNS, 2.73 µM.
For `CCOC(=O)C(=Cc1ccc(Br)cc1)C(=O)OCC`, the GI50 with 786-0 renal was 2.01 µM; in the test with CCRF-CEM leukemia it was 0.838 µM; in the test on MALME-3M melanoma it was 2.32 µM; in the test on MOLT-4 leukemia, 2.94 µM; in the test with OVCAR-4 ovarian it was 3.06 µM; in the test with OVCAR-5 ovarian, 2.66 µM. The GI50 is 2.36 µM in the test on OVCAR-8 ovarian, 1.15 µM in the test on RXF 393 renal, 1.89 µM in the test on SK-MEL-28 melanoma and 1.59 µM in the test on SNB-75 CNS. The TGI worked out at 3.85 µM in the test on 786-0 renal; 7.34 µM with CCRF-CEM leukemia; 5.59 µM in the test with MALME-3M melanoma; 20.2 µM in the test with MOLT-4 leukemia; 10.4 µM with OVCAR-4 ovarian; 6.52 µM with OVCAR-5 ovarian. The TGI was 6.79 µM in the test on OVCAR-8 ovarian, 2.55 µM in the test with RXF 393 renal, 3.62 µM with SK-MEL-28 melanoma and 3.17 µM in the test with SNB-75 CNS.
Take `NC(N)=NC(N)=NCCc1ccccc1`: the GI50 was greater than 100 µM in the test with 786-0 renal; 56.1 µM and > 100 µM with CCRF-CEM leukemia; 72 µM in the test on MALME-3M melanoma; greater than 100 µM in the test with MOLT-4 leukemia; 66.7 µM and 97.9 µM with OVCAR-4 ovarian; greater than 100 µM in the test on OVCAR-5 ovarian. Further, the GI50 in the test on OVCAR-8 ovarian was greater than 100 µM; with RXF 393 renal it was greater than 100 µM; in the test with SK-MEL-28 melanoma, greater than 100 µM; in the test on SNB-75 CNS it was > 100 µM and 81.2 µM. Besides, the TGI in the test on 786-0 renal, in the test with CCRF-CEM leukemia, in the test with MALME-3M melanoma, in the test with MOLT-4 leukemia, in the test with OVCAR-4 ovarian and in the test with OVCAR-5 ovarian was greater than 100 µM each time. The TGI with OVCAR-8 ovarian, in the test with RXF 393 renal, with SK-MEL-28 melanoma and with SNB-75 CNS was greater than 100 µM each time.
In the case of `O=c1cccc(C#CCCCCOC2CCCO2)o1` (stereo not given), the GI50 was 4.03 µM in the test on 786-0 renal; 7.14 µM with CCRF-CEM leukemia; 16.5 µM in the test with MALME-3M melanoma; 8.06 µM in the test on MOLT-4 leukemia; greater than 33.4 µM with OVCAR-4 ovarian; 19.7 µM with OVCAR-5 ovarian. Besides, the GI50 is 14.2 µM with OVCAR-8 ovarian, 6.77 µM in the test on RXF 393 renal, 23.9 µM with SK-MEL-28 melanoma and 11.4 µM in the test with SNB-75 CNS. In addition, the TGI with 786-0 renal is 23.6 µM; with CCRF-CEM leukemia it was greater than 79.9 µM; in the test with MALME-3M melanoma it was 47 µM; in the test on MOLT-4 leukemia, greater than 30.8 µM; in the test on OVCAR-4 ovarian, greater than 60.1 µM; in the test with OVCAR-5 ovarian, greater than 41.2 µM. Moreover, the TGI in the test with OVCAR-8 ovarian is greater than 80.7 µM; in the test with RXF 393 renal, 50.2 µM; in the test with SK-MEL-28 melanoma, greater than 56.8 µM; in the test with SNB-75 CNS, greater than 21.4 µM.
`O=C(C#Cc1c[nH]c(=O)[nH]c1=O)c1ccccc1`: the TGI in the test on 786-0 renal was 24.6 µM; with CCRF-CEM leukemia, 7.8 µM; with MALME-3M melanoma, 15.2 µM; in the test on MOLT-4 leukemia, 7.96 µM; in the test with OVCAR-4 ovarian, 27.1 µM; in the test with OVCAR-5 ovarian it was 33.1 µM. Moreover, the TGI in the test with OVCAR-8 ovarian turned out to be 22.4 µM; with RXF 393 renal, 6.05 µM; with SK-MEL-28 melanoma, 22.9 µM; with SNB-75 CNS it was 33.1 µM.
With `Cc1ccccc1NC(=O)C(=O)Cc1nc2ccccc2s1`, the TGI with 786-0 renal, in the test with CCRF-CEM leukemia, in the test on MALME-3M melanoma, in the test with MOLT-4 leukemia, in the test with OVCAR-4 ovarian and in the test on OVCAR-5 ovarian was greater than 100 µM throughout. For the same molecule, the TGI in the test with OVCAR-8 ovarian, in the test on RXF 393 renal, in the test on SK-MEL-28 melanoma and in the test with SNB-75 CNS was greater than 100 µM throughout.
With `C=CC(=O)Nc1cc2c(Nc3ccc(OCc4ccccn4)c(Cl)c3)ncnc2cc1OCCN1CCOCC1`, the GI50 is 1.7 µM with 786-0 renal; 2.98 µM in the test on CCRF-CEM leukemia; 11.2 µM in the test on MALME-3M melanoma; 3.02 µM in the test on MOLT-4 leukemia; 5.9 µM in the test on OVCAR-4 ovarian; 15.6 µM with OVCAR-5 ovarian. Further, the GI50 in the test on OVCAR-8 ovarian is 5.26 µM; in the test with RXF 393 renal, 0.784 µM; in the test with SK-MEL-28 melanoma, 5.11 µM; in the test with SNB-75 CNS, 2.09 µM. Besides, the TGI in the test on 786-0 renal is greater than 83.3 µM; in the test with CCRF-CEM leukemia, greater than 100 µM; with MALME-3M melanoma, 42.1 µM; in the test with MOLT-4 leukemia it was greater than 85.1 µM; with OVCAR-4 ovarian, greater than 100 µM; with OVCAR-5 ovarian it was greater than 100 µM. Moreover, the TGI was greater than 100 µM in the test on OVCAR-8 ovarian, 3.8 µM in the test with RXF 393 renal, 19.3 µM in the test with SK-MEL-28 melanoma and greater than 74.3 µM in the test on SNB-75 CNS.
Turning to `CC/C(=C(\c1ccc(O)cc1)c1ccc(OCCNC)cc1)c1ccccc1`, the GI50 with 786-0 renal is 1.73 µM and 1.72 µM; in the test on CCRF-CEM leukemia, 2.96 µM and 2.56 µM and 2.75 µM; with MALME-3M melanoma it was 1.76 µM and 1.66 µM and 1.82 µM; with MOLT-4 leukemia, 3.22 µM and 1.94 µM and 2.98 µM; with OVCAR-4 ovarian it was 4.62 µM and 4.21 µM; in the test with OVCAR-5 ovarian, 2.82 µM and 2.44 µM and 2.09 µM. Also, the GI50 was 2.6 µM and 2.18 µM and 2.4 µM with OVCAR-8 ovarian; 1.5 µM and 1.63 µM and 1.37 µM with RXF 393 renal; 1.67 µM and 1.55 µM and 1.74 µM in the test with SK-MEL-28 melanoma; 2.15 µM and 1.96 µM and 1.32 µM with SNB-75 CNS. The TGI in the test on 786-0 renal is 3.13 µM and 3.19 µM and 3.35 µM; in the test with CCRF-CEM leukemia, 11 µM and 8.6 µM and 7.58 µM; in the test with MALME-3M melanoma, 3.49 µM and 3.29 µM and 3.5 µM; in the test with MOLT-4 leukemia it was 8.37 µM and 5.92 µM and 8.57 µM; in the test on OVCAR-4 ovarian, 18.5 µM and 15 µM; with OVCAR-5 ovarian, 8.23 µM and 6.35 µM and 4.77 µM. In addition, the TGI is 6.66 µM and 5.28 µM and 5.78 µM in the test on OVCAR-8 ovarian; 3.68 µM and 3.3 µM and 2.8 µM with RXF 393 renal; 3.04 µM and 2.94 µM and 3.28 µM with SK-MEL-28 melanoma; 7.39 µM and 6.81 µM and 2.76 µM in the test with SNB-75 CNS.

(Values after PubChem BioAssay (NCI).)
